Measured values taken from ChEMBL document CHEMBL4265872, “Around the macrolide - Impact of 3D structure of macrocycles on lipophilicity and cellular accumulation” (Eur J Med Chem, 2017).

Experiments:
[1] = Chromatographic hydrophobicity, logD of the compound at pH 7.4 by fast-gradient RP-HPLC method; type: physicochemical; settings: buffer
[2] = Drug accumulation in human NCI-H292 cells at 3 to 10 uM incubated for 3 hrs by LC-MS analysis relative to azithromycin; type: ADME, cell-based; settings: nci-h292, 3 h

Compound | chromatographic logD [1] | Drug uptake [2] [%]
CC[C@H]1OC(=O)[C@H](C)[C@@H](O[C@H]2C[C@@](C)(OC)[C@@H](OC(=O)CN(CC)CC)[C@H](C)O2)[C@H](C)[C@@H](O[C@@H]2O[C@H](C)C[C@H](N(C)C)[C@H]2O)[C@](C)(OC)C[C@@H](C)C(=O)N[C@H](C)[C@@H](O)[C@]1(C)O | 3.86 | 121
CC[C@H]1OC(=O)[C@H](C)[C@@H](O[C@H]2C[C@@](C)(OC)[C@@H](O)[C@H](C)O2)[C@H](C)[C@@H](O[C@@H]2O[C@H](C)C[C@H](N(C)C)[C@H]2O)[C@](C)(OC)C[C@@H](C)/C(=N\O)[C@H](C)[C@@H](O)[C@]1(C)O | 3.61 | 48
CC[C@H]1OC(=O)[C@H](C)[C@@H](O[C@H]2C[C@@](C)(OC)[C@@H](O)[C@H](C)O2)[C@H](C)[C@@H](O[C@@H]2O[C@H](C)C[C@H](N(C)C)[C@H]2O)[C@](C)(O)C[C@@H](C)CN(CCCNC(=O)C2CCC2)[C@H](C)[C@@H](O)[C@]1(C)O | 2.31 | 0
CC[C@H]1OC(=O)[C@H](C)[C@@H](O[C@H]2C[C@@](C)(OC)[C@@H](O)[C@H](C)O2)[C@H](C)[C@@H](O[C@@H]2O[C@H](C)C[C@H](N(C)C)[C@H]2O)[C@](C)(O)C[C@@H](C)CN(C)[C@H](C)[C@@H](OCCCNC(=O)COC)[C@]1(C)O | 2.58 | 26
CC[C@H]1OC(=O)[C@H](C)[C@@H](OCCCNC(=O)C2CCC2)[C@H](C)[C@@H](O[C@@H]2O[C@H](C)C[C@H](N(C)C)[C@H]2O)[C@](C)(O)C[C@@H](C)CN(C)[C@H](C)[C@@H](O)[C@]1(C)O | 1.78 | 21
CCCCC(=O)NCCCN1C[C@H](C)C[C@@](C)(O)[C@H](O[C@@H]2O[C@H](C)C[C@H](N(C)C)[C@H]2O)[C@@H](C)[C@H](O[C@H]2C[C@@](C)(OC)[C@@H](O)[C@H](C)O2)[C@@H](C)C(=O)O[C@H](CC)[C@@](C)(O)[C@H](O)[C@H]1C | 2.72 | 7
CCCCC(=O)NCCCO[C@@H]1[C@@H](C)N(C)C[C@H](C)C[C@@](C)(O)[C@H](O[C@@H]2O[C@H](C)C[C@H](N(C)C)[C@H]2O)[C@@H](C)[C@H](O[C@H]2C[C@@](C)(OC)[C@@H](O)[C@H](C)O2)[C@@H](C)C(=O)O[C@H](CC)[C@@]1(C)O | 3.74 | 756
CC[C@H]1OC(=O)[C@H](C)[C@@H](O[C@H]2C[C@@](C)(OC)[C@@H](O)[C@H](C)O2)[C@H](C)[C@@H](O[C@@H]2O[C@H](C)C[C@H](N(C)C)[C@H]2O)[C@](C)(OC)C[C@@H](C)/C(=N\O)[C@H](C)[C@@H](O)[C@]1(C)OCCCNC(C)=O | 2.94 | 9
CC[C@H]1OC(=O)[C@H](C)[C@@H](O[C@H]2C[C@@](C)(OC)[C@@H](O)[C@H](C)O2)[C@H](C)[C@@H](O[C@@H]2O[C@H](C)C[C@H](N(C)CCCNC(C)=O)[C@H]2O)[C@](C)(OC)C[C@@H](C)C(=O)[C@H](C)[C@@H](O)[C@]1(C)O | 3.08 | 27
CC[C@H]1OC(=O)[C@H](C)[C@@H](O[C@H]2C[C@@](C)(OC)[C@@H](OCCCNC(=O)C3CCC3)[C@H](C)O2)[C@H](C)[C@@H](O[C@@H]2O[C@H](C)C[C@H](N(C)C)[C@H]2O)[C@](C)(O)C[C@@H](C)CN(C)[C@H](C)[C@@H](O)[C@]1(C)O | 2.62 | 51
CCCCCCCC(=O)NCCCO[C@H]1[C@H](C)O[C@@H](O[C@H]2[C@H](C)[C@@H](O[C@@H]3O[C@H](C)C[C@H](N(C)C)[C@H]3O)[C@](C)(O)C[C@@H](C)CN(C)[C@H](C)[C@@H](O)[C@](C)(O)[C@@H](CC)OC(=O)[C@@H]2C)C[C@@]1(C)OC | 4.1 | 357
CCCCCCCC(=O)NCCCN1C[C@H](C)C[C@@](C)(O)[C@H](O)[C@@H](C)[C@H](O)[C@@H](C)C(=O)O[C@H](CC)[C@@](C)(O)[C@H](O)[C@H]1C | 3.49 | 63
CC[C@H]1OC(=O)[C@H](C)[C@@H](O[C@H]2C[C@@](C)(OC)[C@@H](O)[C@H](C)O2)[C@H](C)[C@@H](O[C@@H]2O[C@H](C)C[C@H](N(C)C)[C@H]2O)[C@](C)(O)C[C@@H](C)CN(CCCNC(=O)COC)[C@H](C)[C@@H](O)[C@]1(C)O | – | 2
CC[C@H]1OC(=O)[C@H](C)[C@@H](O[C@H]2C[C@@](C)(OC)[C@@H](OCCCNC(C)=O)[C@H](C)O2)[C@H](C)[C@@H](O[C@@H]2O[C@H](C)C[C@H](N(C)C)[C@H]2O)[C@](C)(OC)C[C@@H](C)C(=O)[C@H](C)[C@@H](O)[C@]1(C)O | 3.08 | 30
CCC(=O)NCCCN1C[C@H](C)C[C@@](C)(O)[C@H](O[C@@H]2O[C@H](C)C[C@H](N(C)C)[C@H]2O)[C@@H](C)[C@H](O[C@H]2C[C@@](C)(OC)[C@@H](O)[C@H](C)O2)[C@@H](C)C(=O)O[C@H](CC)[C@@](C)(O)[C@H](O)[C@H]1C | 1.86 | 0
CCCCCCCC(=O)NCCCO[C@@H]1[C@@H](C)C(=O)[C@H](C)C[C@@](C)(OC)[C@H](O[C@@H]2O[C@H](C)C[C@H](N(C)C)[C@H]2O)[C@@H](C)[C@H](O[C@H]2C[C@@](C)(OC)[C@@H](O)[C@H](C)O2)[C@@H](C)C(=O)O[C@H](CC)[C@@]1(C)O | 5.07 | 575
CC[C@H]1OC(=O)[C@H](C)[C@@H](OCCCNC(=O)c2c(C)nn(C)c2Cl)[C@H](C)[C@@H](O[C@@H]2O[C@H](C)C[C@H](N(C)C)[C@H]2O)[C@](C)(O)C[C@@H](C)CN(C)[C@H](C)[C@@H](O)[C@]1(C)O | – | 59
CC[C@H]1OC(=O)[C@H](C)[C@@H](O[C@H]2C[C@@](C)(OC)[C@@H](OCCCNC(=O)c3c(C)nn(C)c3Cl)[C@H](C)O2)[C@H](C)[C@@H](O[C@@H]2O[C@H](C)C[C@H](N(C)C)[C@H]2O)[C@](C)(O)C[C@@H](C)CN(C)[C@H](C)[C@@H](O)[C@]1(C)O | 2.52 | 60
CC[C@H]1OC(=O)[C@H](C)[C@@H](O[C@H]2C[C@@](C)(OC)[C@@H](O)[C@H](C)O2)[C@H](C)[C@@H](O[C@@H]2O[C@H](C)C[C@H](N(C)C)[C@H]2OCCCNC(=O)C2CCC2)[C@](C)(O)C[C@@H](C)CN(C)[C@H](C)[C@@H](O)[C@]1(C)O | 3.16 | 124
CC[C@H]1OC(=O)[C@H](C)[C@@H](O[C@H]2C[C@@](C)(OC)[C@@H](O)[C@H](C)O2)[C@H](C)[C@@H](O[C@@H]2O[C@H](C)C[C@H](N(C)C)[C@H]2O)[C@](C)(O)C[C@@H](C)CN(CCCNC(C)=O)[C@H](C)[C@@H](O)[C@]1(C)O | 2.06 | 1
CC[C@H]1OC(=O)[C@H](C)[C@@H](O[C@H]2C[C@@](C)(OC)[C@@H](O)[C@H](C)O2)[C@H](C)[C@@H](O[C@@H]2O[C@H](C)C[C@H](N(C)C)[C@H]2O)[C@](C)(O)C[C@@H](C)CN(C)[C@H](C)[C@@H](OCCCNC(=O)C2CCC2)[C@]1(C)O | 3.5 | 138
CC[C@H]1OC(=O)[C@H](C)[C@@H](O)[C@H](C)[C@@H](O[C@@H]2O[C@H](C)C[C@H](N(C)C)[C@H]2O)[C@](C)(OC)C[C@@H](C)/C(=N\O)[C@H](C)[C@@H](O)[C@]1(C)O | 2.31 | 17
CC[C@H]1OC(=O)[C@H](C)[C@@H](O[C@H]2C[C@@](C)(OC)[C@@H](OCCCNC(=O)COC)[C@H](C)O2)[C@H](C)[C@@H](O[C@@H]2O[C@H](C)C[C@H](N(C)C)[C@H]2O)[C@](C)(O)C[C@@H](C)CN(C)[C@H](C)[C@@H](O)[C@]1(C)O | 2.16 | 9
CC[C@H]1OC(=O)[C@H](C)[C@@H](O[C@H]2C[C@@](C)(OC)[C@@H](O)[C@H](C)O2)[C@H](C)[C@@H](O[C@@H]2O[C@H](C)C[C@H](N(C)C)[C@H]2O)[C@](C)(O)C[C@@H](C)CN(C)[C@H](C)[C@@H](OCCCNC(C)=O)[C@]1(C)O | 2.41 | 7
CCCCCCCC(=O)NCCCN(C)[C@H]1C[C@@H](C)O[C@@H](O[C@@H]2[C@@H](C)[C@H](O[C@H]3C[C@@](C)(OC)[C@@H](O)[C@H](C)O3)[C@@H](C)C(=O)O[C@H](CC)[C@@](C)(O)[C@H](O)[C@@H](C)C(=O)[C@H](C)C[C@@]2(C)OC)[C@@H]1O | 6.44 | 363
CC[C@H]1OC(=O)[C@H](C)[C@@H](O[C@H]2C[C@@](C)(OC)[C@@H](O)[C@H](C)O2)[C@H](C)[C@@H](O[C@@H]2O[C@H](C)C[C@H](N(C)C)[C@H]2O)[C@](C)(O)C[C@@H](C)CN(C)[C@H](C)[C@@H](OCCCNC(=O)c2c(C)nn(C)c2Cl)[C@]1(C)O | 3.01 | 51
CC[C@H]1OC(=O)[C@H](C)[C@@H](O[C@H]2C[C@@](C)(OC)[C@@H](O)[C@H](C)O2)[C@H](C)[C@@H](O[C@@H]2O[C@H](C)C[C@H](N(C)C)[C@H]2O)[C@](C)(OC)C[C@@H](C)C(=O)[C@H](C)[C@@H](OCCCNC(C)=O)[C@]1(C)O | 2.72 | 11
CC[C@H]1OC(=O)[C@H](C)[C@@H](OCCCNC(=O)COC)[C@H](C)[C@@H](O[C@@H]2O[C@H](C)C[C@H](N(C)C)[C@H]2O)[C@](C)(O)C[C@@H](C)CN(C)[C@H](C)[C@@H](O)[C@]1(C)O | 1.4 | 14
CC[C@H]1OC(=O)[C@H](C)[C@@H](O[C@H]2C[C@@](C)(OC)[C@@H](OCCCNC(C)=O)[C@H](C)O2)[C@H](C)[C@@H](O[C@@H]2O[C@H](C)C[C@H](N(C)C)[C@H]2O)[C@](C)(O)C[C@@H](C)CN(C)[C@H](C)[C@@H](O)[C@]1(C)O | 2.06 | 6
CC[C@H]1OC(=O)[C@H](C)[C@@H](O[C@H]2C[C@@](C)(OC)[C@@H](O)[C@H](C)O2)[C@H](C)[C@@H](O[C@@H]2O[C@H](C)C[C@H](N(C)C)[C@H]2O)[C@](C)(OC)C[C@@H](C)C(=O)N[C@H](C)[C@@H](O)[C@]1(C)O | 2.41 | 10
